Measurements from US8614237B2, “Benzofuran-4,5-diones as selective peptide deformylase inhibitors” (Sloan-Kettering Institute for Cancer Research, priority 2009, dated 2013).
≈ marks a conversion by molar mass, not a printed value.

Legend:
[1] = In vivo toxicity of benzofuran-4,5-diones; conditions: i.p. twice a day for four days, 1 to 10 mg/kg, monitored 14 days
Experimental: Lead compound SKC-BF-13 and another newly synthesized derivative SKC-BF-02 were selected in order to assess the in vivo toxicity of benzofuran-4,5-diones. Three mice per group were treated with BF-13 at three doses (i.e., 1, 5 and 10 mg/kg) or with SKC-BF-02 at two doses (i.e., 1 and 10 mg/kg). A control group of two mice were treated with the vehicle (i.e., 20% DMSO v/v). Mice were treated twice a day for four days via intraperitoneal administration. Their weight was monitored along with any other signs of toxicity for fourteen days.
ICR/SCID male mice about three weeks old were used in this study. Three mice per group were treated with BF-13 at three doses (i.e., 1, 5 and 10 mg/kg) or with SKC-BF-02 at two doses (i.e., 1 and 10 mg/kg). A control group of two mice were treated with the vehicle (20% DMSO v/v). Mice were treated twice a day for four days via intraperitoneal administration. Their weight was monitored as well as any other sign of toxicity for 14 days.
SKI 396848 (SKC-BF-12) and SKI 396840 (SKC-BF-02) were synthesized during the first round of exploratory chemistry to assess the in vivo toxicity of benzofuran-4,5-diones (as shown in FIG. 8). Three ICR/SCID male mice per group were treated with SKI 396848 at three doses: 1, 5 and 10 mg/kg or with SKI 396840 at two doses: 1 and 10 mg/kg. A control group of two mice was treated with the vehicle (20% DMSO v/v). Mice were treated twice a day for four days i.p. Their weight was monitored as well as any other sign of toxicity for 14 days. One treated mouse per group was evaluated by a pathologist.

[2] = test system: MMP-1; assay: MMP-1 %I 100uM
Experimental: Table printed on a drawing sheet, Figure 5
Head of the field: MMP-1 %I 100uM
Footnotes: -26 124 % inhibition
The patent's description of the figure: FIG. 5.
Where the first naming reader finds the target: head: MMP-1 %I 100uM

[3] = test system: ALL3 cells; assay: Cytotoxicity in vitro toward ALL3 cells; assay type: cell-based; conditions: Homo sapiens
From the text: (§1) The cell lines HL-60 (human acute promyelocytic leukemia), Jurkat (human acute T cell leukemia), Molt3 (acute lymphoblastic leukemia), CWR22 (prostate carcinoma), HEK293 (human embryonic kidney), K562 (human chronic myeloid leukemia lymphoblasts), Y79 (human retinoblastoma) were obtained from the ATCC, and cultured following ATCC recommendations. The cell line NCEB-1 (human non-hodgkin lymphoma) was obtained from Dr. O'Connor (Sloan-Kettering Institute). The cell line HL-60/RV+ (a P-glycoprotein-overexpressing multi-drug resistant HL-60 variant selected by continuous exposure to vincristine) was described elsewhere (Weisburg et al., J. Biol. Chem. 1999, 274, 10877-10888). The cell line ALL-3 (acute lymphoblastic leukemia isolated from a patient treated at MSKCC and characterized as Philadelphia chromosome positive) was obtained from Dr. Mark Frattini (MSKCC). The assay used for the cytotoxicity studies is based on the dye resazurin and commercially sold as Alamar Blue (O'Brien et al., Eur. J. Biochem. 2000, 267, 5421-5426). Cells were added in 45 μL medium to the pre-plated compounds in 5 μL of 1% DMSO (v/v). After incubation for 72 hours, 5 μL of Alamar Blue was added.

[4] = test system: ALL-3 cells; assay: In vivo efficacy, mouse xenograft model using ALL-3 cells; conditions: 1 and 3 mg/kg i.p. twice a week for two weeks
Experimental: The in vivo efficacy of SKI 396848 (SKC-BF-12) was assessed in a mouse xenograft model using ALL-3 cells isolated from a patient with acute lymphoblastic leukemia refractory to imatinib. Three mice per group were treated at two doses: 1 and 3 mg/kg. A control group of three mice was treated with the vehicle (20% DMSO v/v). Mice were treated twice a week for two weeks i.p. Their weight was monitored as well as any other sign of toxicity for 14 days. […] Nonetheless, the observed difference between the treated groups and the control group was significant, and our study provides a solid proof of concept for the use of benzofuran-4,5-dione based HsPDF inhibitors as novel antitumor agents in vivo.

[5] = test system: EcPDF
Experimental: Head of the field: EcPDF %I 10uM
(§2) Specificity profiling of the derivatives of benzofuran-4,5-diones.
Where the first naming reader finds the target: head: EcPDF %I 10uM

[6] = test system: panel of cancer cell lines; assay: Cytotoxicity assay (Alamar Blue), primary hits and first generation derivatives; assay type: cell-based, human; conditions: Homo sapiens; first generation, panel of nine cancer cell lines; SKC-BF-13: on four cell lines; read-out: cytotoxicity IC50, Alamar Blue viability assay
Experimental: Cytotoxicity assays were performed in order to profile the thirty-three newly synthesized benzofuran-4,5-dione derivatives on a panel of nine cancer cell lines. A heat map summarizes the calculated IC50s ([…]). Twelve out of thirteen derivatives potent toward HsPDF were also cytotoxic toward several cancer cell lines (FIG. 7).
as §1, with “Cells were added in 45 μL medium to the pre-plated compounds in 5 μL of 1% DMSO (v/v). After incubation for 72 hours, 5 μL of Alamar Blue was added.” left out

[7] = test system: Jurkat cell line; assay: Cytotoxicity in vitro toward Jurkat cell line; assay type: cell-based; conditions: Homo sapiens, acute T-cell leukemia
From the text: as §1

[8] = test system: Jurkat tumors; assay: In vivo study, mouse xenograft with Jurkat tumors; conditions: 5, 15 and 30 mg/kg i.p. twice a week for three weeks
Experimental: In this study, higher doses could be achieved by injecting the drug in a small volume (100 μL) of 100% DMSO (v/v). Three mice per group were treated at three doses: 5, 15 and 30 mg/kg. A control group of three mice was treated with the vehicle (100% DMSO v/v). Mice were treated i.p. twice a week for three weeks. Unfortunately, a large variability in the growth of the Jurkat tumors caused data interpretation to be difficult.

[9] = test system: EcPDF; remark: listed apart in the source
Experimental: Head of the field: EcPDF %I 100uM
as §2
Where the first naming reader finds the target: head: EcPDF %I 100uM

[10] = target: T1, HsPDF (Homo sapiens, UniProt Q9HBH1); assay: FP binding assay (fluorescence polarization, probe SKI 267088), specificity profiling and dose response; conditions: dose response, 12 point doubling dilutions, upper limit 100 μM
T1 construct: A 63 amino acid N-terminally truncated human peptide deformylase (HsPDF); 6His (C); made in house; host or cells: E. coli BL21 (DE3), co-transformed with the GroES/EL chaperone plasmid
T1 sequence (Q9HBH1 64-243 limits assumed): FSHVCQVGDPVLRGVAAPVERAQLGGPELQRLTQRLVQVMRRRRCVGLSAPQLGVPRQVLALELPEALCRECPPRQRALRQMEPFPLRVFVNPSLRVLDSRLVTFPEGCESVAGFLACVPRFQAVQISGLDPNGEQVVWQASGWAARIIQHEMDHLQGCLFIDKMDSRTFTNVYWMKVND
Experimental: Specificity profiling was performed on the newly synthesized benzofuran-4,5-diones using the aforementioned FP profiling method (Antczak et al., J. Biomol. Screen 2008, 13, 285-294).
Compounds or high/low controls were added to the wells at a volume of 2 μL. […] High controls consisted of 1% DMSO (v/v). MBP-HsPDF or the metalloprotease to be tested was diluted in the assay buffer (25 mM Hepes, 50 mM NaCl, 0.005% Tween 20, pH 7.5), and 10 μL where added to the 384-well microplates (Low Volume Round Bottom NBS Treated, Corning) to achieve a final concentration of 1 μM. After addition of MBP-HsPDF to the tested compounds, the 384-well microplates were preincubated for one hour at room temperature. Then 8 μL of the probe SKI 267088 in solution in assay buffer was added to the wells at a final concentration of 5 nM. After one hour incubation at room temperature, the fluorescence polarization was read using the Amersham LEADseeker™ Multimodality Imaging System equipped with Cy3 excitation/emission filters and Cy3 FP epi-mirror. Quench tests were performed in duplicate by measuring the fluorescence polarization of wells containing the probe, pre- and post-addition of the compounds at 100 μM.
In each assay, the signal inhibition induced by the compounds was expressed as a percentage compared to high and low controls located on the same plate, as defined as % Inhibition=(high control average−read value)/(high control average−low control average)×100. The dose response was assessed in duplicate and using 12 point doubling dilutions with 100 μM compound concentration as the upper limit. The dose response curve for each set of data was fitted separately, and the two IC50 values obtained were averaged.

[11] = test system: panel of eight cancer cell lines; assay: Cytotoxicity profiling of 26 second generation derivatives (Alamar Blue viability assay, nuclei count); assay type: cell-based, human
Experimental: Cytotoxicity profiling for the 26 newly synthesized benzofuran-4,5-diones derivatives was performed on a panel of eight cancer cell lines.
The cell lines HL-60 (human acute promyelocytic leukemia), Jurkat (human acute T cell leukemia), Molt3 (acute lymphoblastic leukemia), CWR22 (prostate carcinoma), K562 (human chronic myeloid leukemia lymphoblasts), and Y79 (human retinoblastoma) were obtained from the ATCC, and cultured following ATCC recommendations. The cell line HL-60/RV+ (a P-glycoprotein-overexpressing multi-drug resistant HL-60 variant selected by continuous exposure to vincristine) was described elsewhere (Weisburg J H, Roepe P D, Dzekunov S, Scheinberg D A: Intracellular pH and multidrug resistance regulate complement-mediated cytotoxicity of nucleated human cells. J Biol Chem 1999; 274:10877-10888). The cell line ALL-3 (acute lymphoblastic leukemia isolated from a patient treated at MSKCC and characterized as Philadelphia chromosome positive) was obtained from Dr. Mark Frattini (MSKCC). The viability assay we used in this study is based on the dye resazurin and commercially sold as Alamar Blue (O'Brien J, Wilson I, Orton T, Pognan F: Investigation of the Alamar Blue (resazurin) fluorescent dye for the assessment of mammalian cell cytotoxicity. Eur J Biochem 2000; 267:5421-5426). Cells were added in 45 μL medium to the pre-plated compounds in 5 μL of 1% DMSO (v/v). After 72 h incubation was added 5 μL Alamar Blue. […] Plates were then fixed and nuclei were stained using Hoechst for the nuclear count proliferation assay. Imaging for Hoechst staining of nuclei count were acquired with an IN Cell Analyzer 2000 epifluorescence automated microscope ([…]) (GE Healthcare, Piscataway, N.J.) equipped with a 4× objective, using D360/40 excitation filter (360 nm excitation peak; +/−40 nm bandpass), HQ535/50 emission filter (535 nm emission peak; +/−50 nm bandpass) and Q505LP dichroic, and exposing fields for 200 milliseconds in the blue channel. Image analysis was conducted with the IN Cell Developer 1.7 software (GE Healthcare) using custom-developed analysis modules. The analysis module used for nuclei count performs object segmentation in the blue channel to automatically define and count the number of nuclei. Data is reported as the sum of imaged nuclei.
In addition of the Alamar Blue viability assay readout, for the adherent cell lines of this panel (CWR22 and Meso47) we performed a direct nuclei count to assess the effect of the novel derivatives on cell proliferation.

[12] = Aqueous solubility limit by laser nephelometry; assay type: physicochemical; conditions: aqueous solution (composition not stated), kinetic from dmso stock, upper limit 10 μM
From the text: We assessed the aqueous solubility limit for the 26 novel benzofuran-4,5-diones using laser nephelometry. […] Data were compared to standards of known turbidity to assess the solubility limit for each compound.

Row | SMILES | signs of toxicity in vivo (weight and other signs) [1] | MMP-1 %I 100uM [2] [%I] | IC50 [3] [µM] | tumor progression in ALL-3 xenograft [4] | EcPDF %I 10uM [5] [%I] | IC50 [6] [µM] | IC50 [7] [µM] | body weight of treated groups [8] | EcPDF %I 100uM [9] [%I] | IC50 [10] [µM] | activity against the cell lines of the panel, second generation [11] | solubility [12] [µM]
1 | COc1ccc(C(=O)c2coc3c2C(=O)C(=O)C(Br)=C3Br)cc1OC [SKC-BF-12, 6,7-Dibromo-3-(3,4-dimethoxy-benzoyl)-benzofuran-4,5-dione] | None of the treatments were found to induce any signs of toxicity | 46 | 36 | only a slight delay in tumor progression | 35 |  |  |  |  |  |  | 
2 | COc1cc(C(=O)c2coc3c2C(=O)C(=O)C(Br)=C3Br)cc(OC)c1OC [SKC-BF-13, 6,7-Dibromo-3-(3,4,5-trimethoxy-benzoyl)-benzofuran-4,5-dione] | none of the treatments induced any sign of toxicity | 38 |  |  | 32 | < 10 | 3 | no loss of weight | 32 | 5.2 |  | 
3 | O=C1C(=O)c2c(C(=O)c3ccc(Cl)c(Cl)c3)coc2C(Cl)=C1Cl [SKI 417516, 6,7-dichloro-3-(3,4-dichlorobenzoyl)benzofuran-4,5-dione] |  |  |  |  |  |  |  |  |  |  | active against all cell lines of our panel except Meso47 | 5 (≈ 1.95 µg/mL)
